The source of these data is patent publication US11753407B2, “Compounds for treating spinal muscular atrophy” (PTC Therapeutics, Inc., priority 2012, dated 2023).

A word on the melting point: it is the temperature, or range, at which the solid turns liquid.

SMILES strings stand for the structures.

Data set [1] deals with Smn protein in SMA patient fibroblast cells (GM03813). Kind of data set: Smn protein assay in cultured cells (SMN HTRF). It counts as cell-based, human. The conditions noted are these: SMA patient fibroblast cells, 48 hours; for EC1.5x for Smn protein expression: 7-point concentration curve, SMN HTRF, concentration producing 1.5 times Smn protein vs DMSO vehicle control; for maximum fold (Fold) increase of Smn protein: 7-point concentration data, fold relative to vehicle control. The essentials:
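Fibroblasts, SMA patient; 5,000 cells/well; 7-pt curve, 3.16-fold serial dilution; 48 h, 37 °C, 5% CO2; RIPA lysis 1 h RT; anti-SMN d2 + kryptate overnight RT; HTRF 665/620 nm; fold vs DMSO; EC1.5×, max fold.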

Data set [2] deals with SMN2 minigene mRNA (SMN2-A minigene) in HEK293H cells. Kind of data set: SMN2 minigene mRNA splicing RT-qPCR assay in cultured cells. It counts as cell-based, human. The settings on record: Homo sapiens, HEK293-H; concentration increasing full length SMN2 mRNA 1.5-fold relative to vehicle-treated cells; HEK293H cells with SMN2-A minigene, 24 hours, 7-point concentration data; read-out: EC1.5x for production of full length SMN2 mRNA. The method in brief:
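Stable SMN2-A minigene HEK293H; cpd 7-pt 3.16-fold series, 200× in DMSO, 24 h, 37 °C, n=2. Lysates → multiplex RT-qPCR (minigene FL + GAPDH), efficiency-corrected ΔΔCt vs vehicle. EC1.5× = 1.5-fold FL mRNA gain.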
For orientation: Real-time PCR tracks product formation cycle by cycle.

In the case of `Cc1nc2ccc(-c3cc(=O)n4cc(C5=CCN(C)CC5)ncc4n3)cc2o1` [Compound 422, 2-(2-methyl-1,3-benzoxazol-6-yl)-7-(1-methyl-1,2,3,6-tetrahydropyridin-4-yl)-4H-pyrazino[1,2-a]pyrimidin-4-one], the melting point lay within 240 to 242 °C. Also, in data set [1], the “EC1.5x for Smn protein expression” value was “** (an EC1.5× between >1 μM and ≤3 μM is indicated by two stars (**))”; the “maximum fold (Fold) increase of Smn protein” value (“maximum fold (Fold) increase” below) is “*** (a fold increase between >1.35 and ≤1.5 is indicated by three stars (***))”. In addition, in data set [2], the EC (1.5-fold increase) is less than 0.1 µM.

As for `COc1ccc(-c2cc(=O)n3cc(N4CCN(C)[C@H](C)C4)cc(C)c3n2)cc1OC` [Compound 333, 2-(3,4-dimethoxyphenyl)-7-[(3R)-3,4-dimethylpiperazin-1-yl]-9-methyl-4H-pyrido[1,2-a]pyrimidin-4-one], the melting point was found to be 148 °C. Further, in data set [1], the “EC1.5x for Smn protein expression” value was “** (an EC1.5× between >1 μM and ≤3 μM is indicated by two stars (**))”; the “maximum fold (Fold) increase” value was “**** (a fold increase between >1.5 and ≤1.65 is indicated by four stars (****))”. Further, the EC (1.5-fold increase) in data set [2] is 0.1 to 0.3 µM.

Take `CCCc1nc(C)cn2nc(-c3cc(=O)n4cc(N5CCN(C)CC5)ccc4n3)cc12` [Compound 724, 7-(4-methylpiperazin-1-yl)-2-(6-methyl-4-propylpyrazolo[1,5-a]pyrazin-2-yl)-4H-pyrido[1,2-a]pyrimidin-4-one]: the melting point lay in the range of 246 to 248 °C. Also, in data set [1], the “EC1.5x for Smn protein expression” value is “*** (an EC1.5× between >0.3 μM and ≤1 μM is indicated by three stars (***))”; the “maximum fold (Fold) increase” value is reported as “***** (a fold increase >1.65 is indicated by five stars (*****))”. For the same molecule, the EC (1.5-fold increase) in data set [2] was in the range of 0.3 to 1 µM.

Molecule `COc1ccc(-c2cc(=O)n3cc(C4=CCN(C)CC4)ccc3n2)cc1F` [Compound 204, 2-(3-fluoro-4-methoxyphenyl)-7-(1-methyl-1,2,3,6-tetrahydropyridin-4-yl)-4H-pyrido[1,2-a]pyrimidin-4-one] came in with a melting point of 129 to 132 °C. In addition, in data set [1], the “EC1.5x for Smn protein expression” value is listed as “**** (an EC1.5x≤0.3 μM is indicated by four stars (****))”; the “maximum fold (Fold) increase” value is “**** (a fold increase between >1.5 and ≤1.65 is indicated by four stars (****))”. Also, the EC (1.5-fold increase) in data set [2] is less than 0.1 µM.

As for `CCc1nc(C)cn2nc(-c3cc(=O)n4cc(C5CCN(C6CCC6)CC5)ccc4n3)cc12` [Compound 681, 7-(1-cyclobutylpiperidin-4-yl)-2-(4-ethyl-6-methylpyrazolo[1,5-a]pyrazin-2-yl)-4H-pyrido[1,2-a]pyrimidin-4-one], the melting point was 227 to 229 °C. For the same molecule, in data set [1], the “EC1.5x for Smn protein expression” value is listed as “**** (an EC1.5x≤0.3 μM is indicated by four stars (****))” and the “maximum fold (Fold) increase” value was “***** (a fold increase >1.65 is indicated by five stars (*****))”. The EC (1.5-fold increase) in data set [2] was less than 0.1 µM.

Molecule `CCN1CC=C(c2ccc3nc(-c4ccc(OC)c(OC)c4)cc(=O)n3c2)CC1` [Compound 370, 2-(3,4-dimethoxyphenyl)-7-(1-ethyl-1,2,3,6-tetrahydropyridin-4-yl)-4H-pyrido[1,2-a]pyrimidin-4-one] displayed a melting point of 170 to 172 °C. Also, in data set [1], the “EC1.5x for Smn protein expression” value was “*** (an EC1.5× between >0.3 μM and ≤1 μM is indicated by three stars (***))”; the “maximum fold (Fold) increase” value is on record as “***** (a fold increase >1.65 is indicated by five stars (*****))”. Further, in data set [2], the EC (1.5-fold increase) lay within 0.1 to 0.3 µM.

`Cc1cn2cc(-c3cc(=O)n4cc(N5CCN(C)[C@@H](C)C5)ccc4n3)cc(F)c2n1` [Compound 295, 7-[(3S)-3,4-dimethylpiperazin-1-yl]-2-(8-fluoro-2-methylimidazo[1,2-a]pyridin-6-yl)-4H-pyrido[1,2-a]pyrimidin-4-one] showed a melting point of 269 to 275 °C. In data set [1], the “EC1.5x for Smn protein expression” value is recorded as “**** (an EC1.5x≤0.3 μM is indicated by four stars (****))”; the “maximum fold (Fold) increase” value is “**** (a fold increase between >1.5 and ≤1.65 is indicated by four stars (****))”. Also, the EC (1.5-fold increase) in data set [2] is less than 0.1 µM.

The molecule `CN1CC=C(c2ccc3nc(-c4ccc5c(cnn5C)c4)cc(=O)n3c2)CC1` [Compound 449, 2-(1-methyl-1H-indazol-5-yl)-7-(1-methyl-1,2,3,6-tetrahydropyridin-4-yl)-4H-pyrido[1,2-a]pyrimidin-4-one] returned a melting point of 148 to 150 °C. For the same molecule, in data set [1], the “EC1.5x for Smn protein expression” value is reported as “**** (an EC1.5x≤0.3 μM is indicated by four stars (****))”; the “maximum fold (Fold) increase” value was “**** (a fold increase between >1.5 and ≤1.65 is indicated by four stars (****))”. For the same molecule, in data set [2], the EC (1.5-fold increase) is less than 0.1 µM.

In turn, `CCc1nc(C)cn2nc(-c3cc(=O)n4cc(N5CCN(CCCF)CC5)ccc4n3)cc12` [Compound 665, 2-(4-ethyl-6-methylpyrazolo[1,5-a]pyrazin-2-yl)-7-[4-(3-fluoropropyl)piperazin-1-yl]-4H-pyrido[1,2-a]pyrimidin-4-one] returned a melting point of 240 to 242 °C. Also, in data set [1], the “EC1.5x for Smn protein expression” value is “**** (an EC1.5x≤0.3 μM is indicated by four stars (****))” and the “maximum fold (Fold) increase” value is “***** (a fold increase >1.65 is indicated by five stars (*****))”. The EC (1.5-fold increase) in data set [2] lay within 0.1 to 0.3 µM.

Turning to `CCc1cc(-c2cc(=O)n3cc(N4CCN(CCO)CC4)ccc3n2)cn2cc(C)nc12` [Compound 647, 2-(8-ethyl-2-methylimidazo[1,2-a]pyridin-6-yl)-7-[4-(2-hydroxyethyl)piperazin-1-yl]-4H-pyrido[1,2-a]pyrimidin-4-one], the melting point lay within 248 to 253 °C. For the same molecule, in data set [1], the “EC1.5x for Smn protein expression” value is recorded as “**** (an EC1.5x≤0.3 μM is indicated by four stars (****))” and the “maximum fold (Fold) increase” value is “***** (a fold increase >1.65 is indicated by five stars (*****))”. In addition, the EC (1.5-fold increase) in data set [2] was less than 0.1 µM.

The molecule `Cc1cn2cc(-c3cc(=O)n4cc(N5CCN(CCO)[C@@H](C)C5)ccc4n3)cc(F)c2n1` [Compound 539, 2-(8-fluoro-2-methylimidazo[1,2-a]pyridin-6-yl)-7-[(3S)-4-(2-hydroxyethyl)-3-methylpiperazin-1-yl]-4H-pyrido[1,2-a]pyrimidin-4-one] gave a melting point of 270 to 274 °C. Also, in data set [1], the “EC1.5x for Smn protein expression” value is given as “**** (an EC1.5x≤0.3 μM is indicated by four stars (****))”; the “maximum fold (Fold) increase” value is “**** (a fold increase between >1.5 and ≤1.65 is indicated by four stars (****))”. For the same molecule, the EC (1.5-fold increase) in data set [2] is less than 0.1 µM.

For the molecule `Cc1cn2nc(-c3cc(=O)n4cc(N5CCC(N(C)C)CC5)ccc4n3)cc2cn1` [Compound 468, 7-[4-(dimethylamino)piperidin-1-yl]-2-(6-methylpyrazolo[1,5-a]pyrazin-2-yl)-4H-pyrido[1,2-a]pyrimidin-4-one], the melting point was in the range of 240 to 242 °C. In addition, in data set [1], the “EC1.5x for Smn protein expression” value is “*** (an EC1.5× between >0.3 μM and ≤1 μM is indicated by three stars (***))”; the “maximum fold (Fold) increase” value is “**** (a fold increase between >1.5 and ≤1.65 is indicated by four stars (****))”. The EC (1.5-fold increase) in data set [2] was less than 0.1 µM.
